In publication PMC10747339 (Pharmaceutics, 2023):
Where a name gives a salt, the structure may show the parent alone. Read-outs that look alike come from different tables or passages of the source.

Assays:
[1] = 19F NMR titration, association constant by 1:1 isotherm fit; assay type: physicochemical; settings: D2O, 300 K, total 5 mM
Procedure: The stoichiometry of the complex was determined using Job’s method. […] The total molar concentration and the total volume were kept constant at 5 mM and 500 µL, respectively, and the molar ratio of each component was varied from 0 to 1. Corresponding ^19F NMR spectra were recorded. The observation of chemical shifts varying in a linear fashion with the concentrations of bound species was obtained and affords the corresponding Job plots as described elsewhere.
^19F NMR Titrations: the same experimental data set of Job plot titrations was used. The association constants were obtained by fitting a 1:1 isotherm according to the programs available at http://app.supramolecular.org/bindfit/ (accessed on 19 October 2023).

[2] = Phase solubility studies with cyclodextrins (Higuchi and Connors), complexation efficiency (Loftsson); assay type: physicochemical; settings: phosphate buffer; for complexation efficiency (CE), range over the media: citrate buffer, WFI
Procedure: Cyclodextrins solutions (from 26 mM to 264 mM) were prepared within sodium citrate (50 mM, pH 3) and sodium phosphate (80 mM, pH 2.7) buffer solutions and WFI. […] Aliquots were drawn from these suspensions and filtered through a Pall Life Science (Cortland, NY, USA) 0.45 µm filter with a Versapore acrylic copolymer membrane before quantification. The pH of these suspensions was checked before filtration.
(§1) Quantification of mefloquine was performed using a Shimadzu® Nexera® high-performance liquid chromatography system (Kyoto, Japan). One microliter of samples was eluted on a 150 mm × 2.1 mm 1.7 µm octadodecyl Acquity® column (Waters, Milford, CT, USA) at 40 °C using an isocratic ammonia buffer(120 mM, pH 10):acetonitrile:methanol (40:40:20, v/v/v) mobile phase at a 1 mL/min flow rate. The samples were diluted to 1/10th with the mobile phase before injection. Quantification was performed at 283 nm with daily made calibration curves. This method was linear for concentrations ranging from 10 to 5000 mg/L. The limit of quantification was estimated at […] and the repeatability and intermediate fidelity were good (coefficient of variation < 5%) for concentrations ranging from 50 to 5000 mg/L.
Complexation efficiencies (CE) were determined from the phase solubility studies using the Loftsson method. CE = (D/CD)/(CD) = Slope/(1 − Slope) where (D/CD) is the concentration of dissolved complex; (CD) is the concentration of dissolved free CD, and Slope is the slope of the phase-solubility profile.

[3] = hydrochloride salt, cited from earlier work
[4] = Solubility of mefloquine hydrochloride in buffer solutions and water for injection; assay type: physicochemical; settings: for solubility at 24 h: thermodynamic from solid
Procedure: These suspensions were sonicated for 1 h and stirred for 24 h at 24 °C and protected from the light. Aliquots were drawn from these suspensions and filtered through a Pall Life Science (Cortland, NY, USA) 0.45 µm filter with a Versapore acrylic copolymer membrane before quantification. The pH of these suspensions was checked before filtration.
as §1

[5] = Photostability study (ICH), HPLC content; assay type: physicochemical; settings: 168 days; for change in mefloquine content: 25 °C, 60% RH, 7500 Lux and 1.1 W/m^2; for color change: light exposure
Procedure: The solutions were stored in type 1 glass vials (n = 3 for each solution) sealed with a rubber septum. […] Photostability studies were conducted using the Binder KBF P240 climatic chamber (Tuttligen, Germany), equipped with UVA and visible illumination sources set at 7500 Lux and 1.1 W/m^2. The chamber was maintained at a temperature of 25 ± 2 °C and a relative humidity of 60 ± 5% during the 6-months study.
The method was adapted using pharmacopeia recommendations for utilization with the Phenomenex® Kinetex® 2.6 µm, 150 × 2.1 mm column (Torrance, CA, USA), featuring the same octadecyl stationary phase with a smaller particle size. By employing this column, the flow rate was optimized at 0.4 mL/min.

[6] = piperidine's basicity; cited from earlier work
p-Gp = settings: cited from earlier work
caco-2 = tested on: caco-2; design: method as in PMID 27045516; settings: cited from earlier work

Compound	average association constant (K1:1) [1] [M⁻¹]	complexation efficiency (CE), range over the media [2]	solubility ([3]; acetate buffer, pH 4.5, 37 °C) [µg/mL]	solubility ([3]; water, pH 6.5, 37 °C) [µg/mL]	solubility at 24 h ([4]; aqueous buffer, citrate buffer, pH 2.7, 24 °C) [µg/mL]	solubility at 24 h ([4]; aqueous buffer, phosphate buffer, pH 2.6, 24 °C) [µg/mL]	solubility at 24 h ([4]; aqueous buffer, phosphate buffer, pH 6.5, 24 °C) [µg/mL]	change in solubility, citrate buffer compared to phosphate buffer ([4]; same pH value)	solubility compared with previously reported ([4]; versus ref 4)	solubility at 24 h ([4]; water for injection (purified water), purified water, final pH 4.6, 24 °C) [µg/mL]	change in mefloquine content ([5]; 10 mg/mL in 200 mM RAMEB solution)	change in mefloquine content ([5]; 10 mg/mL in acetonitrile:water (50:50))	color change ([5]; RAMEB solution)	color change ([5]; acetonitrile:water (50:50) solution)	additional peaks (degradation products) in chromatograms ([5]; both solutions)	pKa [6]	p-Gp inhibition (p-Gp)	permeability (caco-2)	equivalents of cyclodextrin to achieve target concentration of 26.5 mM (10 mg/mL) mefloquine [2]
CC(O)COC[C@H]1O[C@@H]2O[C@H]3[C@H](O)[C@@H](O)[C@@H](O[C@H]4[C@H](O)[C@@H](O)[C@@H](O[C@H]5[C@H](O)[C@@H](O)[C@@H](O[C@H]6[C@H](O)[C@@H](O)[C@@H](O[C@H]7[C@H](O)[C@@H](O)[C@@H](O[C@H]8[C@H](O)[C@@H](O)[C@@H](O[C@H]1[C@H](O)[C@H]2O)O[C@@H]8COCC(C)O)O[C@@H]7COCC(C)O)O[C@@H]6COCC(C)O)O[C@@H]5COCC(C)O)O[C@@H]4COCC(C)O)O[C@@H]3COCC(C)O (stereo partly drawn) [HP-β-CD, hydroxypropyl-β-cyclodextrin]	140.5	0.1–0.13																	
OC(c1cc(C(F)(F)F)nc2c(C(F)(F)F)cccc12)C1CCCCN1 (stereo not drawn) [mefloquine, mefloquine hydrochloride]			1950	1806	640	4810	780	eight-fold decrease	two-fold higher	4120	No substantial change	No substantial change	No color change	No color change	did not reveal any additional peak appearances	8.6	moderate	around 9 × 10^−6 cm/s	
randomly methylated β-cyclodextrin [RAMEB]	333.4	0.31–0.38																	approximately two
